Results: patent US12540143B2, “Methods and compositions for targeted protein degradation” (Ranok Therapeutics (Hangzhou) Co. Ltd., priority 2019, dated 2026)
Read-outs that look alike come from different tables or passages of the source.

Tests used:
[1] = biological target: T1, BRD4 (Homo sapiens, UniProt O60885); assay: BRD4 Degradation Flow Cytometry Assay in MV4-11 cells; format: cell-based; conditions: MV4-11 cells; for Percentage BRD4 degradation vs untreated / BRD4 (% of control): 24 hr; for Percentage BRD4 degradation vs untreated: highest degradation percentage observed at concentrations between 40-1000 nM
T1 construct: endogenous in cells; host or cells: MV4-11
Method: Protein Degradation Flow Cytometry
(§1) MV4-11 cells were plated in a 24-well tissue culture plate at a density of 350,000 cells/450 μL/well and incubated in 37° C./5% CO2 for 1 hr. Cells were then treated with compounds at various concentrations and incubated in 37° C./5% CO2 for 24 hr. Cells were harvested, washed once, counted and 200 μL of 1% paraformaldehyde/PBS was added and incubated for 15 min at room temperature. 200 μL of 1×PBS/0.4% Triton X-100 was added and incubated for 15 min at 4° C. Cells were washed three times and resuspended in 50 μL of 1×PBS/0.2% Triton X-100. 2 μL/10^6 cells of anti-BRD4 antibody (ABCAM, #128874) was added and mixed by pipetting up and down. Cells were incubated for 30 min at room temperature in the dark, washed three times and resuspended in 50 μL of 1×PBS/0.2% Triton X-100. Goat anti-rabbit IgG H&L antibody (1:2000 dilution) was added and mixed by pipetting up and down and incubated for 30 min at room temperature in the dark. Finally, cells were washed three times and resuspended in 200 μL of PBS for flow cytometric analysis.

[2] = tested on: MV4-11 cells; assay: MV4-11 Cytotoxicity Assay; format: cell-based, human; conditions: 72 hr, CCK-8, read-out: MV4-11 cytotoxicity
[3] = biological target: T2, BRD2 (Homo sapiens, UniProt P25440); assay: BET Protein Family Degradation Flow Cytometry Assay (BRD2) in MV4-11 cells; format: cell-based; conditions: 24 hr
T2 construct: endogenous in cells; host or cells: MV4-11
Method: as §1
(§2) Similar western blotting experiments of for BRD2 and BRD3 were performed in MV4-11 cells using anti-BRD2 (Cell Signaling Technology, #139690) and anti-BRD3 (Cell Signaling Technology, #50818).

[4] = biological target: T3, BRD3 (Homo sapiens, UniProt Q15059); assay: BET Protein Family Degradation Flow Cytometry Assay (BRD3) in MV4-11 cells; format: cell-based; conditions: 24 hr
T3 construct: endogenous in cells; host or cells: MV4-11
Method: as §1, §2

T3 sequence (Q15059 whole entry): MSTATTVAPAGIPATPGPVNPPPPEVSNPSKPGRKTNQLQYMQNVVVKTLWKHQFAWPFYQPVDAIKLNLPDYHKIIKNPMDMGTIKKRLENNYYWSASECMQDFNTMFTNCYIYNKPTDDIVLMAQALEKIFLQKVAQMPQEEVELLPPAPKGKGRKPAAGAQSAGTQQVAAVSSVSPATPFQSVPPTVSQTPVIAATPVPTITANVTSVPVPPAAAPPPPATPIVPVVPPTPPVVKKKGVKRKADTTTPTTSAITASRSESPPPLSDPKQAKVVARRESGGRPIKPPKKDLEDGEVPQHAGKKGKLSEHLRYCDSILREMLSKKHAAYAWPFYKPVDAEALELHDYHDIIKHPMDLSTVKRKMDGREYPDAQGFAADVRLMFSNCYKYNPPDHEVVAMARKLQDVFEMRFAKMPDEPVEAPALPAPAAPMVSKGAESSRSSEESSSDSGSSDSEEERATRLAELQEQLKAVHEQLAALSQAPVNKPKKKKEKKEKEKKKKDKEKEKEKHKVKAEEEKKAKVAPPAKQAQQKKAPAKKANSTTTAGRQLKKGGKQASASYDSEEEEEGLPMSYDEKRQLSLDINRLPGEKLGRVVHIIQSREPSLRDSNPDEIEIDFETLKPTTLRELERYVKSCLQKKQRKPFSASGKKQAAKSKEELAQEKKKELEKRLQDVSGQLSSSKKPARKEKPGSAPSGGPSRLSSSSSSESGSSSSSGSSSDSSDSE
T2 sequence (P25440 whole entry): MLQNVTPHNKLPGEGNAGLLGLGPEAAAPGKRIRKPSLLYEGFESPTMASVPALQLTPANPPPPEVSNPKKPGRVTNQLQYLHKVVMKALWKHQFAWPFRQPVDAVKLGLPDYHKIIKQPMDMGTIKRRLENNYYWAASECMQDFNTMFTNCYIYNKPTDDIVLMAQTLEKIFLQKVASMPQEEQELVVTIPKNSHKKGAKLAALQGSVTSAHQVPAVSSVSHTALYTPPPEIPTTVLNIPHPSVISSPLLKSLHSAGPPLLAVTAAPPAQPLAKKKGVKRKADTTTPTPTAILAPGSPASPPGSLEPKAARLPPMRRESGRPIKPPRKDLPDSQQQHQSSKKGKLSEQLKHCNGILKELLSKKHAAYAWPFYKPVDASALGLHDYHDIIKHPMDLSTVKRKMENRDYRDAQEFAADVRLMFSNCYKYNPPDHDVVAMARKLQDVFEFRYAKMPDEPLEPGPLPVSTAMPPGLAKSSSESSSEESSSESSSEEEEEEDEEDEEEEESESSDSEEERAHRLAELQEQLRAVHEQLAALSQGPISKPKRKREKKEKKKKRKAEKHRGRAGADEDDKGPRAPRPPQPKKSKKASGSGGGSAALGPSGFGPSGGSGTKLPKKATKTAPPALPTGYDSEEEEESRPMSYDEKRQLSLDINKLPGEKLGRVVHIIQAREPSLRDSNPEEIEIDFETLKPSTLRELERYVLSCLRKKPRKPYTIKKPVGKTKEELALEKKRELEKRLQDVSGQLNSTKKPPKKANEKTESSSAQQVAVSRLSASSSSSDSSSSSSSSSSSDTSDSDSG

## CCc1cc(-c2nnc(O)n2-c2ccc(CN3CCN(CC4CCN(C(=O)C[C@@H]5N=C(c6ccc(Cl)cc6)c6c(sc(C)c6C)-n6c(C)nnc65)CC4)CC3)cc2)c(O)cc1O [Compound 1, 2-((6S)-4-(4-chlorophenyl)-2,3,9-trimethyl-6H-thieno[3,2-f][1,2,4]triazolo[4,3-a][1,4]diazepin-6-yl)-1-(4-((4-(4-(3-(5-ethyl-2,4-dihydroxyphenyl)-5-hydroxy-4H-1,2,4-triazol-4-yl)benzyl)piperazin-1-yl)methyl)piperidin-1-yl)ethanone]
[1]
  Percentage BRD4 degradation vs untreated: A (Degradation > 50%)

## Cc1sc2c(c1C)C(c1ccc(Cl)cc1)=N[C@@H](CC(=O)NCC(=O)NCC1CCN(C(=O)C3CCN(Cc4ccc(-n5c(O)nnc5-c5cc(C(C)C)c(O)cc5O)cc4)CC3)CC1)c1nnc(C)n1-2 [Compound 46, (S)-2-(4-(4-chlorophenyl)-2,3,9-trimethyl-6H-thieno[3,2-f][1,2,4]triazolo[4,3-a][1,4]diazepin-6-yl)-N-(2-(((1-(1-(4-(3-(2,4-dihydroxy-5-isopropylphenyl)-5-hydroxy-4H-1,2,4-triazol-4-yl)benzyl)piperidine-4-carbonyl)piperidin-4-yl)methyl)amino)-2-oxoethyl)acetamide, trifluoroacetic acid]
[1]
  Percentage BRD4 degradation vs untreated: A (Degradation > 50%)
[2]; Homo sapiens, MV4-11
  IC50: < 100 nM

## Cc1cc(-c2nnc(O)n2-c2ccc(CN3CCN(CC4CCN(C(=O)C[C@@H]5N=C(c6ccc(Cl)cc6)c6c(sc(C)c6C)-n6c(C)nnc65)CC4)CC3)cc2)c(O)cc1O [Compound 9, 2-((6S)-4-(4-chlorophenyl)-2,3,9-trimethyl-6H-thieno[3,2-f][1,2,4]triazolo[4,3-a][1,4]diazepin-6-yl)-1-(4-((4-(4-(3-(2,4-dihydroxy-5-methylphenyl)-5-hydroxy-4H-1,2,4-triazol-4-yl)benzyl)piperazin-1-yl)methyl)piperidin-1-yl)ethanone, trifluoroacetic acid]
[1]
  Percentage BRD4 degradation vs untreated: B (10% < Degradation = 10-50%)
[2]; Homo sapiens, MV4-11
  IC50: < 100 nM

## CC(=O)N1CCC(CN2CCN(Cc3ccc(-n4c(O)nnc4-c4cc(C(C)C)c(O)cc4O)cc3)CC2)CC1 [HSP90 binder, 1-(4-((4-(4-(3-(2,4-dihydroxy-5-isopropylphenyl)-5-hydroxy-4H-1,2,4-triazol-4-yl)benzyl)piperazin-1-yl)methyl)piperidin-1-yl)ethan-1-one, reference compound]
[1]
  Percentage BRD4 degradation vs untreated: C (Degradation < 10%)
[1]; flow cytometry
  BRD4 degradation (in words): no substantial BRD4 degradation was observed

## Cc1sc2c(c1C)C(c1ccc(Cl)cc1)=N[C@@H](CC(=O)NCCCCNC(=O)COc1cccc3c1C(=O)N(C1CCC(=O)NC1=O)C3=O)c1nnc(C)n1-2 (stereo partly drawn) [dBET1]
[3]; 3 nM
  BRD2 (% of control): 96.4 % of control
[3]; 10 nM
  BRD2 (% of control): 94.9 % of control
[3]; 30 nM
  BRD2 (% of control): 55.1 % of control
[3]; 100 nM
  BRD2 (% of control): 9.3 % of control
[3]; 300 nM
  BRD2 (% of control): 0.5 % of control
[4]; 3 nM
  BRD3 (% of control): 89.7 % of control
[4]; 10 nM
  BRD3 (% of control): 43.2 % of control
[4]; 30 nM
  BRD3 (% of control): 14.5 % of control
[4]; 100 nM
  BRD3 (% of control): 1.4 % of control
[4]; 300 nM
  BRD3 (% of control): 0.3 % of control

## Cc1sc2c(c1C)C(c1ccc(Cl)cc1)=N[C@@H](CC(=O)NCCc1ccc(-n3c(O)nnc3-c3cc(C(C)C)c(O)cc3O)cc1)c1nnc(C)n1-2 [Compound 39, 2-((6S)-4-(4-chlorophenyl)-2,3,9-trimethyl-6H-thieno[3,2-f][1,2,4]triazolo[4,3-a][1,4]diazepin-6-yl)-N-(4-(3-(2,4-dihydroxy-5-isopropylphenyl)-5-hydroxy-4H-1,2,4-triazol-4-yl)phenethyl)acetamide]
[1]
  Percentage BRD4 degradation vs untreated: C (Degradation < 10%)
[2]; Homo sapiens, MV4-11
  IC50: < 100 nM

## Cc1sc2c(c1C)C(c1ccc(Cl)cc1)=N[C@@H](CC(=O)NCC(=O)NCC1CCN(C(=O)C3CCN(Cc4ccc(-n5c(O)nnc5-c5cc(C(C)C)c(O)cc5O)cc4)CC3)C1)c1nnc(C)n1-2 (stereo partly drawn) [Compound 47, 2-((S)-4-(4-chlorophenyl)-2,3,9-trimethyl-6H-thieno[3,2-f][1,2,4]triazolo[4,3-a][1,4]diazepin-6-yl)-N-(2-(((1-(1-(4-(3-(2,4-dihydroxy-5-isopropylphenyl)-5-hydroxy-4H-1,2,4-triazol-4-yl)benzyl)piperidine-4-carbonyl)pyrrolidin-3-yl)methyl)amino)-2-oxoethyl)acetamide, trifluoroacetic acid]
[1]; 100 nM
  BRD4 (% of control): 17.3 % of control
[1]; 300 nM
  BRD4 (% of control): 9.6 % of control
[3]; 100 nM
  BRD2 (% of control): 81.2 % of control
[3]; 300 nM
  BRD2 (% of control): 102.2 % of control
[4]; 100 nM
  BRD3 (% of control): 95.0 % of control
[4]; 300 nM
  BRD3 (% of control): 91.4 % of control
[2]; Homo sapiens, MV4-11
  IC50: < 100 nM

## CCc1cc(-c2nnc(O)n2-c2ccc(CN3CCC(C(=O)N4CCC(CNC(=O)C[C@@H]5N=C(c6ccc(Cl)cc6)c6c(sc(C)c6C)-n6c(C)nnc65)C4)CC3)cc2)c(O)cc1O (stereo partly drawn) [Compound 77, 2-((6S)-4-(4-chlorophenyl)-2,3,9-trimethyl-6H-thieno[3,2-f][1,2,4]triazolo[4,3-a][1,4]diazepin-6-yl)-N-((1-(1-(4-(3-(5-ethyl-2,4-dihydroxyphenyl)-5-hydroxy-4H-1,2,4-triazol-4-yl)benzyl)piperidine-4-carbonyl)pyrrolidin-3-yl)methyl)acetamide, trifluoroacetic acid]
[2]; Homo sapiens, MV4-11
  IC50: 100 to 1000 nM

## Cc1sc2c(c1C)C(c1ccc(Cl)cc1)=N[C@@H](CC(=O)N1CCC(CN3CCN(Cc4ccc(-n5c(S)nnc5-c5cc(C(C)C)c(O)cc5O)cc4)CC3)CC1)c1nnc(C)n1-2 [Compound 12, 2-((6S)-4-(4-chlorophenyl)-2,3,9-trimethyl-6H-thieno[3,2-f][1,2,4]triazolo[4,3-a][1,4]diazepin-6-yl)-1-(4-((4-(4-(3-(2,4-dihydroxy-5-isopropylphenyl)-5-mercapto-4H-1,2,4-triazol-4-yl)benzyl)piperazin-1-yl)methyl)piperidin-1-yl)ethanone, trifluoroacetic acid]
[2]; Homo sapiens, MV4-11
  IC50: < 100 nM

## Cc1sc2c(c1C)C(c1ccc(Cl)cc1)=N[C@@H](CC(=O)NCc1ccc(CN3CCC(Cc4ccc(-n5c(O)nnc5-c5cc(C(C)C)c(O)cc5O)cc4)CC3)cc1)c1nnc(C)n1-2 [Compound 89, (S)-2-(4-(4-chlorophenyl)-2,3,9-trimethyl-6H-thieno[3,2-f][1,2,4]triazolo[4,3-a][1,4]diazepin-6-yl)-N-(4-((4-(4-(3-(2,4-dihydroxy-5-isopropylphenyl)-5-hydroxy-4H-1,2,4-triazol-4-yl)benzyl)piperidin-1-yl)methyl)benzyl)acetamide, trifluoroacetic acid]
[2]; Homo sapiens, MV4-11
  IC50: < 100 nM

## CCn1c(=O)/c(=C2\Sc3ccccc3N2C)s/c1=C\c1cccc[n+]1CCNC(=O)C[C@@H]1N=C(c2ccc(Cl)cc2)c2c(sc(C)c2C)-n2c(C)nnc21 [Compound 8]
[2]
  IC50: > 1000 nM
